Read-outs that look alike come from different tables or passages of the source.

Data on three compounds can be found in patent US9630914B2, “Multitarget FAAH and COX inhibitors and therapeutical uses thereof” (FONDAZIONE ISTITUTO ITALIANO DI TECNOLOGIA, priority 2012, dated 2017).

Series [1] has as its system gastric mucosa. The experiment in a line: Gastric lesions (gastric irritation, ulceration index). Format: in vivo. The conditions noted are these: food-deprived mice. An excerpt:
(§1) Male CD1 mice, weighing 25-30 g, (Charles River, Calco, Italy) were used. Procedures were in accordance with the Ethical Guidelines of the International Association for the Study of Pain and were approved by Italian regulations on protection of animals used for experimental and other scientific purposes (D. M. 116192) as well as with European Economic Community regulations (O. J. of E. C. L 358/1 Dec. 18, 1986). Mice were housed in groups of 5 in ventilated cages containing autoclaved cellulose paper as nesting material, with free access to food and water. They were maintained under a 12 h light/dark cycle (lights on at 08:00 a.m.), at controlled temperature (21±1° C.) and relative humidity (55±10%). The animals are randomly divided in groups of 6 mice. Behavioral testing was performed between 9:00 a.m. and 5:00 p.m. Scientists running the experiments were not aware of the treatment protocol at the time of the test (blind procedure).
To study the gastric irritation the protocol of Chan et al. (1995) was followed. […] After 4 h, the mice were killed by CO2 asphyxiation. The stomachs were removed, opened, rinsed in PBS, and the stomach lining was photographed. Scoring was done by observers blinded to experimental conditions, as previously reported (Jain et al., 2002): red coloration=0.5; spot ulcers=1; hemorrhagic streaks=1.5. […]

In series [2] the test system is carrageenan-induced inflammation and hyperalgesia. Kind of series: Carrageenan test (paw edema and thermal hyperalgesia). The class given is in vivo, mice.
From the text: as §1
The pro-inflammatory agent λ-carrageenan (1% weight-vol^−1 in sterile water, 50 μL) was injected into the left hind paw of slightly restrained mice, and paw volume was measured with a plethysmometer (Ugo Basile, Comerio, Italy), while thermal hyperalgesia was assessed by the method of Hargreaves et al. (1988), measuring the latency to withdraw the hind paw from a focused beam of radiant heat (thermal intensity: infrared 3.0) in a plantar test apparatus (Ugo Basile, Comerio, Italy). Cutoff time was set at 30 s. Withdrawal latencies were measured on both ipsilateral and contralateral paws at various time points after drug administration.
Drug solutions were prepared immediately before use in saline containing 10% PEG-400 and 10% Tween 80 and orally administered in a volume of 2.5 mL-kg^−1 before intraplantar injection of carrageenan.
Results are expressed as the mean±S.E.M., or 95% confidence limits (95% CL). Efficacy data were compared using two-way analysis of variance (ANOVA) followed by Bonferroni's test for multiple comparisons. For gastric toxicity, the significance of differences between groups was determined by one-way ANOVA followed by a Bonferroni's test for multiple comparisons.
Background: Carrageenan injected into the paw causes an acute inflammation.

Series [3] addresses ovine COX-1 (Ovis aries (Sheep), UniProt P05979). Kind of series: In vitro COX assay (COX Inhibitor Screening Assay Kit), COX-1. As to conditions: 5 μM arachidonic acid. Format: biochemical. As to the method:
COX activity was measured using a commercial kit (COX Inhibitor Screening Assay Kit—Cayman Chemical N. 560131) which includes both ovine COX-1 and human recombinant COX-2 enzymes. Inhibitors were pre-incubated with either ovine COX-1 or human COX-2 in order to screen isozyme-specific inhibition. Differently than described in the kit protocol, the reaction was carried out in the presence of 5 μM arachidonic acid while for the blank sample (no activity) the two enzymes were inactivated for 40 minutes at 100° C. It was then measured the amount of PGF2α produced by reduction with SnCl2 of COX-derived PGH2, via enzyme immunoassay (EIA) using a PG-specific antibody and competing with a PG-acetylcholinesterase conjugate.
Absorbance was measured at 412 nm with a Tecan Infinite M200 plate reader and data were processed according to manufacturer's instructions.
The median inhibitory concentrations (IC50) were determined by non-linear regression analysis of the Log [concentration]/response curves generated with mean replicate values using a four parameter Hill equation curve fitting with GraphPad Prism 5 (GraphPad Software Inc., CA-USA).

Series [4] deals with FAAH. As to conditions: literature value; cited from earlier work.
[5] abbreviates: oral, 3, 10, 30 and 100 mg/kg, mouse.

Sequence of ovine COX-1 (P05979 25-600): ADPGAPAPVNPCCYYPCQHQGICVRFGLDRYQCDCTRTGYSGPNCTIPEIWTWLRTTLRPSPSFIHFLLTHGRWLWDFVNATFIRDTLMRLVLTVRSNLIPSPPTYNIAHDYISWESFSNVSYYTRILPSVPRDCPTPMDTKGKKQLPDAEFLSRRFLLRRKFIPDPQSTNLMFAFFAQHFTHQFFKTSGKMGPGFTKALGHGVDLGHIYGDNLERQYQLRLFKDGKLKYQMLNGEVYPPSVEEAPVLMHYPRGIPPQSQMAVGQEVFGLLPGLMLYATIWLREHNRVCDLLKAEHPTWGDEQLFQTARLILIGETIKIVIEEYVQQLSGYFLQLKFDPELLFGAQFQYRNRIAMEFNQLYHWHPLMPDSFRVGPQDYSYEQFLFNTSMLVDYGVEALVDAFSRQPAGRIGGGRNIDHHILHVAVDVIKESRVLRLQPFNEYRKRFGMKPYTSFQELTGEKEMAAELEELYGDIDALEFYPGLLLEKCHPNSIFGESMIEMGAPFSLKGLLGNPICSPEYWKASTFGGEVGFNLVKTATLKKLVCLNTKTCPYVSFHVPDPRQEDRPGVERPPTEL

Consider `CC(C(=O)O)c1ccc(-c2ccccc2)c(F)c1` (stereo not shown) [Compound A, flurbiprofen, reference compound], for which, in series [1] (oral 30 mg/kg), the “gastric irritation and gastric ulcers” value was “profound gastric irritation and appearance of gastric ulcers”. The ED50 in series [2] (oral, mouse carrageenan model, read-out: ED50 on edema (Δ volume paw)) amounted to 30 mg/kg; in series [2] (oral, mouse carrageenan model, read-out: ED50 on thermal hyperalgesia (withdrawal latency)) it was 30 mg/kg.
On to `CCCCCCNC(=O)Oc1cccc(-c2ccc(C(C)C(=O)O)cc2F)c1` (stereo not shown) [Example 12, 2-[3-fluoro-4-[3-(hexylcarbamoyloxy)phenyl]phenyl]propanoic acid], for which the ulcerogenic effect result in series [1] (oral, up to 100 mg/kg) is “no ulcerogenic effect”. Moreover, half-maximal inhibition in series [3] (IC50) was put at 0.012 µM. Further, the ED50 in series [2] (Mus musculus, read-out: ED50 on edema (Δ volume paw)) stood at 10 mg/kg. Besides, the 50% effective dose (ED50) in series [2] (Mus musculus, read-out: ED50 on thermal hyperalgesia (withdrawal latency)) is 10 mg/kg. Moreover, in series [2] (setting [5]), the “effect on carrageenan-induced inflammation and hyperalgesia” value was “dose-dependent and persistent suppression”; the “potency at inhibiting the responses induced by carrageenan, compared with compound A” value is reported as “more potent than oral compound A”.
As for `Cc1cccnc1NC(=O)C(C)c1ccc(CC(C)C)cc1` (stereo not shown) [Ibu-am5], the half-inhibitory concentration (IC50) in series [4] is 2.7 µM.

Broadly, the ED50 is the dose that gives a 50% effect, or the effect in half of the subjects. In general, IC50 refers to the concentration that gives 50% inhibition.
